The test system of this assay is bone marrow-derived macrophages (BMDM). Description: TNF-α and IL-6 production in mouse bone marrow-derived macrophages (ELISA). The format is cell-based, C57BL/6J mice. To be noted: mBMDM, 1 nM (1.8 ng/mL), 16 h. The procedure: The ability of Lipid A mimetics 1–3 to induce the production of TNF-α and IL-6 from bone marrow-derived macrophages (BMDM) in mice was subsequently examined and compared to that of synthetic E. coli Lipid A and E. coli MPLA, which are reliable positive controls due to their chemical purity and homogeneity (Figure 6). […] Likewise, 1 nM (1.8 ng/mL) of 1 or 2 triggered the release of a 3-fold higher amount of IL-6 (1500 pg/mL) compared to Lipid A (500 pg/mL).
Bone-marrow-derived microphages (BMDMs) were isolated and differentiated from the bone marrow of C57BL/6J mice. The bone marrow was flushed from femur and fibia with RPMI media. The erythrocytes were lysed with 0.88% ammonium chloride, 15 min at 37 °C. A single-cell suspension of the bone marrow cells was then seeded in cell culture flasks at a concentration of 1 × 10^6 cells/mL in RPMI supplemented with 20% FBS and 40 ng/mL recombinant M-CSF. The cell culture medium was changed on day 3. On day 6, the differentiated cells were trypsinized, counted, and seeded in 24-well plates at a concentration of 1 × 10^6 cells/mL in RPMI supplemented with 10% FBS. After 24 h, the cells were stimulated with Lipid A mimetics 1–3 and with synthetic E. coli Lipid A/MPLA (E. coli O111:B4 LPS was used as positive control) for 16 h. The nanomolar concentrations of 1–3 were calculated according to the MW of the synthetic compounds. The supernatants were then tested for cytokines using Ready-Set-Go ELISA kits (eBioscience).

Take `CCCCCCCCCCCCCC(=O)O[C@H](CCCCCCCCCCC)CC(=O)N[C@H]1[C@H](OC[C@H]2O[C@H](OP(=O)(O)O)[C@H](NC(=O)C[C@H](O)CCCCCCCCCCC)[C@@H](OC(=O)C[C@H](O)CCCCCCCCCCC)[C@@H]2O)O[C@H](CO)[C@@H](OP(=O)(O)O)[C@@H]1OC(=O)C[C@@H](CCCCCCCCCCC)OC(=O)CCCCCCCCCCCCC` [Lipid A]: the IL-6 release stood at 500 pg/mL.
